Reference: patent publication US20220313620A1, “COMPOSITION FOR PREVENTING AND TREATING TAUOPATHIES” (SERVICIO ANDALUZ DE SALUD, priority 2019, published 2022)

Tests used:
[1] = test system: Ghrelin; assay: Plasma ghrelin (ELISA) after acute oral gavage in fasted rats; assay type: in vivo; conditions: adult male Wistar rats
Protocol: (§1) The protocol was approved by the Ethics Committee for Animal Experiments of the University of Malaga.
(§2) D-Pinitol (3-0-methyl-D-chiro-inositol) was generously provided by EURONUTRA SL (https://www.euronutra.com/, Malaga, Spain), in the form of crystalline fine powder (lot: PPN-M0201). For acute treatments, D-Pinitol was dissolved in water to be administered by gavage (orally) at different concentrations (100 mg/Kg and 500 mg/Kg), drug was administered at a volume of 1 ml/kg.
(§3) After 18 hours of fasting, D-Pinitol dissolved in water was administered acutely by gavage (100 mg/kg in a first study, and 500 mg/kg in a subsequent study). After administration, the animals were sacrificed in groups at different times (being time 0 the administration of D-Pinitol). For the first study (100 mg/kg), groups of animals were sacrificed at times: 10, 20, 30, 60, 120, 240 and 360 minutes after administration; for the second study (500 mg/kg), animals were sacrificed at times: 60, 120 and 240 minutes after administration. As a control group, a group was administered only with water (by gavage).
Animals were anesthetized with sodium pentobarbital (50 mg/Kg, i.p.), blood, brain and liver samples were collected. Blood was centrifuged (2100 g for 8 min, 4° C.) and the plasma kept for further analysis. Liver and brain samples were flash-frozen in liquid N2, then stored at −80° C. until further analysis.
(§4) The plasma levels of insulin and ghrelin were determined with an enzyme-linked immunosorbent assay (ELISA) method using commercial kits: EMD Millipore Corporation (Billerica, Mass., USA) Cat. #EZRMI-13K and Cat. #EZRGRT-91K, respectively. Glucagon levels in plasma was determined with a Glucagon Enzyme Immunoassay (EIA) Kit: Cat. #RAB0202 Sigma-Aldrich (Saint Louis, Mo., USA). All serum samples were assayed in duplicate within one assay, and results were expressed in terms of the particular standard hormone.

[2] = test system: Glucagon; assay: Plasma glucagon (EIA) after acute oral gavage; assay type: in vivo; conditions: oral 500 mg/kg, adult male Wistar rats, FIG. 3E
Protocol: as §1, §2
as §3, with “As a control group, a group was administered only with water (by gavage).” left out
as §4, with “All serum samples were assayed in duplicate within one assay, and results were expressed in terms of the particular standard hormone.” left out

[3] = test system: tau protein; assay: Hippocampal tau phosphorylation and total tau (western blot) after 10 days of oral drinking; assay type: in vivo, Wistar rats; conditions: oral by drinking 100 mg/Kg for 10 days, hippocampus
Protocol: (§5) Animal experimental procedures were carried out in accordance with the European Communities directive 2010/63/EU and Spanish legislation (Real Decreto 53/2013). The protocol was approved by the Research and approved by Ethics Committee for Animal Experiments of the University of Malaga, Spain. In accordance with the ARRIVE guidelines, all efforts were made to minimize animal suffering and to reduce the number of animals used per experimental group. Chronic drinking experiments on Wistar rats were performed on 20 male rats. All adult rats, ageing 2 months (≈300 g of body weight), were provided by Charles River Laboratories (Barcelona, Spain). The animals were housed individually under a standard 12 h light-dark cycle in a room with temperature and humidity control. Water and rat chow pellets were provided ad libitum throughout the course of the present study.
(§6) Caromax®-D-Pinitol (3-O-methyl-d-chiro-inositol, DPIN, 98% purity) and Caromax®-D-Chiro-inositol (cis-1,2,3-trans-3,5,6-cyclohexanehexol, DCI) were provided by Euronutra SL (Málaga, Spain). They were dissolved in water to orally daily administration by drinking and/or gavage at dose of 100 mg/Kg of body weight (BW) in a 1 ml/kg of BW volume to Zucker and Wistar rats for 4 weeks (28 days) and 10 days, respectively (FIG. 1). During the drinking treatments, the concentration of inositols in the water were updated considering the daily increase of BW of the rats and the possible loss of water by evaporation.
(§7) Brain extract. Frozen brain samples (17 mg per sample) were homogenized in 1 mL of cold RIPA lysis buffer (50 mM Tris-HCl pH 7.4, 150 mM NaCl, 0.5% NaDOC, 1 mM EDTA, 1% Triton, 0.1% SDS, 1 mM Na3VO4, 1 mM NaF) supplemented with a protease cocktail (Hoffmann-Roche). The suspension was incubated for 2 hours at 4° C., followed by centrifugation at 12,000 rpm for 15 minutes at 4° C. The supernatant was transferred to a new clean centrifuge tube, and Bradford colorimetric method was used to determine the concentration of the total protein. The protein extracts were diluted 1:1 in loading buffer (DTT 2X) and heated for 5 minutes at 99° C. before being subjected to electrophoresis.
Western Blot Analysis. The tissue protein (10-15 μg) was subjected to electrophoresis on 4-12% Criterion XT Precast Bis-Tris gels (Bio-Rad, USA) for 30 minutes at 80V and 2 h at 150V. […] Bands were quantified by densitometric analysis using ImageJ software (Rasband, WS, ImageJ, US National Institutes of Health, Bethesda, Md., USA). […] The results were expressed as the protein/α-Adaptin ratio or phosphorylated/total protein ratio and normalized to the control group (Y axis represents ‘fold mean of the control values’).
All data are expressed as mean±SEM. […]

[4] = test system: glycogen synthase kinase-3β (GSK-3β); assay: Hippocampal GSK-3β phosphorylation and total level (western blot) after 10 days of oral administration; assay type: in vivo, Wistar rats; conditions: oral 100 mg/Kg for 10 days, hippocampus
Protocol: as §5, §6, §7
Western Blot Analysis. The tissue protein (10-15 μg) was subjected to electrophoresis on 4-12% Criterion XT Precast Bis-Tris gels (Bio-Rad, USA) for 30 minutes at 80V and 2 h at 150V. Proteins were transferred onto a 0.2 μm nitrocellulose membrane (Bio-Rad, USA) for 1 h at 80V by wet transfer equipment. The membrane was washed twice for 5 min in TBST (10 mM Tris-HCl, 150 mM NaCl, 0.1% Tween 20, pH 7.6) and blocked with 2% Bovine Serum Albumin-Tris Buffered Saline Tween 20 (BSA-TBST) for one hour at room temperature on a shaker platform. Subsequently, the membrane was incubated with respective primary antibodies overnight at 4° C. diluted in 2% BSA-TBST (Table 2 for additional information). The following day, the membrane was washed three times for 5 min with TBST. An appropriate HRP conjugated rabbit/mouse secondary antibody (Promega) was diluted 1:10000 in 2% BSA-TST and incubated with the membrane for 1 h shaking at room temperature. Finally, the membrane was washed as above and exposed to chemiluminescent reagent (Santa Cruz, Biotechnology Inc.) for 5 min. Stripping/reproving steps were used when necessary. Respective membrane bound protein was then visualized by Chemiluminescence (ChemiDoc Imaging System, Bio-Rad). Bands were quantified by densitometric analysis using ImageJ software (Rasband, WS, ImageJ, US National Institutes of Health, Bethesda, Md., USA). Normalization was performed using a reference protein of the same membrane, the α-Adaptin. The results were expressed as the protein/α-Adaptin ratio or phosphorylated/total protein ratio and normalized to the control group (Y axis represents ‘fold mean of the control values’).
All data are expressed as mean±SEM. Statistical analysis was undertaken for studies where each group size was of, at least, n=5. […]

## COC1[C@@H](O)[C@@H](O)C(O)[C@H](O)[C@H]1O (stereo partly drawn) [DPIN, (1S,2S,4S,5R)-6-methoxycyclohexane-1,2,3,4,5-pentol]
[1]; oral 100 mg/kg in sterile water, FIG. 2A
  circulating plasma Ghrelin concentration: increase
[1]; oral 500 mg/kg, FIG. 3A / FIG. 4
  circulating plasma Ghrelin concentration: increase
[2]
  glucagon secretion: Increase
[3]; FIG. 7A.1
  quantity of phospho-tau (AT8: Ser202, Thr205) compared with vehicle group: dropped to more than half
[3]; FIG. 7A.2
  relative protein levels of total tau compared with vehicle group: rise
[4]; FIG. 9A.1
  GSK-3β serine-9 phosphorylation: no effect
[4]; FIG. 9A.2
  GSK-3β tyrosine-216 phosphorylation: no effect
[4]; FIG. 9A.3
  GSK-3β kinase activity (Ser9/Tyr216): neither enhance nor inhibition
